According to patent publication US8501183B2, “Immunogenic compositions and diagnostic and therapeutic uses thereof” (The Walter and Eliza Hall Institute of Medical Research, priority 2002, dated 2013):

What was measured:
[1] = tested on: anti-Glycan antibodies in human serum; experiment: ELISA of human serum against synthetic glycan antigen; assay type: binding; conditions: serum of a malaria-exposed Papua New Guinean donor; BSA-conjugated glycan
[2] = tested on: human antibody responses to the native GPI toxin; experiment: Competition ELISA, synthetic glycan vs GPI; assay type: binding; conditions: competitor in molar excess
[3] = IgG response of mice immunized with synthetic GPI glycan conjugate; assay type: in vivo; conditions: rodents
Method: All experiments were in accordance with local Animal Ethics Committee regulations. Young adult C57BL6 mice from Jackson Laboratories were pre-bled and inoculated with 6.5 μg KLH-glycan (0.176 μg glycan, n=16) or KLH-cysteine (sham-immunized, n=24) emulsified in Freund's Complete Adjuvant, and boosted with equal amounts of immunogen in Incomplete Freund's Adjuvant at 2 weekly intervals. After two boosts they were rested and injected i.p with 1×10^6 P. berghei ANKA-infected erythrocytes. Naïve mice (n=12) served as unimmunized controls. Parasitemias were assessed from Giemsa-stained thin films. Mortality was checked twice daily. Mice were judged as developing cerebral malaria if displaying neurological signs such as loss of reflex or ataxia, and dying between days 5 to 12 post-infection with relatively low parasitemia levels (below 15%). Differences in survival curves of P. berghei infected mice across this time-period were assessed by Cox-Mantel logrank transformation on Kaplan-Meier plots. Deaths from day 14 onwards with high parasitaemia (>60%) and low rates of cerebral vascular occlusion were ascribed to hyperparasitaema/haemolysis, and all animals failing to develop cerebral malaria eventually succumbed to this syndrome.
The synthetic malarial GPI glycan was immunogenic in rodents. […] No reactivity to GPI glycan was detected in pre-immune sera or in animals receiving sham-conjugated KLH. […]

[4] = assay type: in vivo, C3H/HeJ and C57B16 mice; conditions: primed with 20 mg D-galactosamine, agent after 1 hour
Method: In addition a standard murine model of TNF-driven lethality was used to determine whether GPI mediates parasite-induced acute toxic shock. This model manifests disseminated intravascular coagulation, peripheral vascular failure and shock, and thus has clinical features in common with the human “algid malaria” syndrome. LPS-non-responsive C3H/HeJ and C57B16 mice were primed with 20 mg D-galactosamine followed after 1 hour by purified GPI, PE or PBS alone.

[5] = tested on: P. berghei ANKA; experiment: P. berghei ANKA cerebral malaria challenge of immunized mice; assay type: in vivo, C57Bl/6 mice
Description: Mice were immunized by three successive boosts of free intact malarial GPI emulsified in Incomplete Freund's Adjuvant spaced two weeks apart. Control mice received an equal amount of IFA alone. After immunization, sera were bled and the titres of anti-GPI antibodies determined by ELISA. All animals immunized with GPI developed broadly similar levels of anti-GPI antibodies (range 1/1024-1/4096) among individual animals. […] Two weeks after the final boost mice were challenged with P. berghei ANKA. Parasitaemia, the development of neurological complications, and mortality were recorded daily. No difference in parasitaemia was observed. In the control group, 100% of animal manifested between day 5 and 9 an aggressive cerebral syndrome with neurological signs proceeding to rapid death with 12 hours. […]
The P. berghei ANKA murine cerebral malaria model has many features in common with the human cerebral malaria syndrome. […] Parasitaemia, the development of neurological complications, and mortality were recorded daily. […]

[6] = Competition / PI-specific ELISA, epitope mapping of anti-GPI antibodies; assay type: binding; conditions: sera of mice immunized with free GPI
Method: Coupling of the purified GPI glycan to proteins was undertaken as above. To measure anti-lipid reactivities, we utilized commercially available phosphatidylinositol from Sigma with identical composition to the malarial GPI, namely dipalmitoyl-PI. 2 mg PI was coupled to defatted BSA according to published protocols (Bate, C. A. W., Taverne, J., Kwiatkowski, D., and Playfair, J. H. L. (1993) Immunology 79:138-145).
From a 1/32 dilution, sera or mAbs were titrated two-fold in 1% BSA in PBS, 0.05% Tween-20, and pre-incubated for 4 hours at room temperature with a molar excess of competitior (20 μg/ml PI, or phosphatidylserine (PS), or diluent alone). Antigen (BSA-PI or BSA alone) at 20 μg/ml in phosphate binding buffer was incubated overnight in 50 μl volumes in flat-bottomed Immunlon 96-well plates, followed by extensive washing with buffer. The plates were blocked with 1% BSA in PBS for several hours. 50 μl aliquots of titrated antibody with or without competitor were incubated in triplicate for 2 hours at room temperature, followed by extensive washing with 1% BSA 0.05% Tween-20 in PBS. An aliquot of affinity purified, biotin-labelled isotype specific goat anti-mouse second antibody was incubated as above, followed by further washing and the addition of streptavidin-alkaline phosphatase. […] Background binding to BSA-coated plates was determined in parallel. […]

[7] = ELISA titres of anti-GPI antibodies in sera of immunized mice; assay type: in vivo; conditions: mice immunized with free GPI in IFA
Method: Antigen (GPI-OVA, Glycan-OVA, BSA-PI, OVA or BSA alone) at 20 μg/ml in phosphate binding buffer was incubated overnight in 50 μl volumes in flat-bottomed Immunlon 96-well plates, followed by extensive washing with buffer. The plates were blocked with 1% BSA, 1% OVA in PBS for several hours. From a 1/32 dilution, sera were titrated two-fold in 1% BSA, 1% OVA in PBS, and 50 μl aliquots incubated in triplicate for 2 hours at room temperature, followed by extensive washing with 1% BSA, 1% OVA 0.05% Tween-20 in PBS. An aliquot of affinity purified, biotin-labelled isotype specific goat anti-mouse second antibody was incubated as above, followed by further washing and the addition of streptavidin-alkaline phosphatase. After 30 minutes the plates were washed again and colourimetric development initiated by the addition of p-Nitrophenylphosphate in diethanolamine buffer. Background binding to BSA/OVA-coated plates was determined in parallel. […]
Mice were immunized by three successive boosts of free intact malarial GPI emulsified in Incomplete Freund's Adjuvant spaced two weeks apart. […] After immunization, sera were bled and the titres of anti-GPI antibodies determined by ELISA. […] Parasitaemia, the development of neurological complications, and mortality were recorded daily. […]

Substance | detection of antibodies in human serum [1] | competition of human antibody responses to native GPI [2] | immunogenicity [3] | recipients with lethal shock [4] [%] | parasitaemia ([5]; after P. berghei ANKA challenge two weeks after final boost, vs control groups) | rate of deaths ([5]; free GPI in IFA vs IFA alone, P. berghei ANKA challenge) | epitope specificity of the antibody response [6] | isotype of the anti-GPI response [7]
NH2—CH2—CH2—PO4-(Manα1-2)6Manα1-2Manα1-6Manα1-4GlcNH2α1-6myo-Insositol-1,2 cyclic phosphate [synthetic GPI glycan] | able specifically to detect anti-Glycan antibodies in human serum | compete out the majority of human antibody responses to the native GPI toxin | immunogenic |  |  |  |  | 
NH—CH2—CH2—PO4-(Manα1-2)-6Manα1-2Manα1-6Manα1-4GlcN-H2α1-6(myristoyl)-myo-Inositol-1-PO4-dipalmitoylglycerol [free GPI] |  |  |  | 100 | No difference | noticeable faster rate | directed predominantly towards the lipidic (phosphatidylinositol, PI) domain of the molecule | predominantly IgM
